Assay results: PubChem BioAssay (NCI)
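Grown in 96-well plates, cells were treated for 48 hours with each compound at five concentrations. Insufficient inhibition: endpoint recorded as highest concentration tested. TGI: total growth inhibition.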

What was measured:
Experiment in all cases: DTP human tumour cell line panel, 48 h
TK-10 renal = system: TK-10 renal
MALME-3M melanoma = system: MALME-3M melanoma
SF-539 CNS = system: SF-539 CNS
SN12C renal = system: SN12C renal
HS 578T breast = system: HS 578T breast
NCI-H226 lung = system: NCI-H226 lung
KM12 colon = system: KM12 colon
MDA-N = system: MDA-N
LOX IMVI melanoma = system: LOX IMVI melanoma
SR leukemia = system: SR leukemia
OVCAR-4 ovarian = system: OVCAR-4 ovarian
UO-31 renal = system: UO-31 renal
NCI-H23 lung = system: NCI-H23 lung
SK-OV-3 ovarian = system: SK-OV-3 ovarian
M14 melanoma = system: M14 melanoma
MDA-MB-231 breast = system: MDA-MB-231 breast
K-562 leukemia = system: K-562 leukemia
UACC-257 melanoma = system: UACC-257 melanoma
UACC-62 melanoma = system: UACC-62 melanoma
786-0 renal = system: 786-0 renal
HOP-62 NSCLC = system: HOP-62 NSCLC
SF-268 CNS = system: SF-268 CNS
IGROV1 ovarian = system: IGROV1 ovarian
BT-549 breast = system: BT-549 breast
PC-3 prostate = system: PC-3 prostate
HL-60(TB) leukemia = system: HL-60(TB) leukemia
HT29 colon = system: HT29 colon
SF-295 CNS = system: SF-295 CNS
HCT-15 colon = system: HCT-15 colon
EKVX NSCLC = system: EKVX NSCLC
U251 CNS = system: U251 CNS
MDA-MB-435 = system: MDA-MB-435
NCI-H522 lung = system: NCI-H522 lung
NCI/ADR-RES ovarian = system: NCI/ADR-RES ovarian
OVCAR-3 ovarian = system: OVCAR-3 ovarian
SK-MEL-28 melanoma = system: SK-MEL-28 melanoma
CAKI-1 renal = system: CAKI-1 renal
OVCAR-8 ovarian = system: OVCAR-8 ovarian
OVCAR-5 ovarian = system: OVCAR-5 ovarian
SK-MEL-2 melanoma = system: SK-MEL-2 melanoma
NCI-H460 lung = system: NCI-H460 lung
HOP-92 NSCLC = system: HOP-92 NSCLC
A549 NSCLC = system: A549 NSCLC
RXF 393 renal = system: RXF 393 renal
SK-MEL-5 melanoma = system: SK-MEL-5 melanoma
SW-620 colon = system: SW-620 colon
SNB-19 CNS = system: SNB-19 CNS
A498 renal = system: A498 renal
COLO 205 colon = system: COLO 205 colon
T-47D breast = system: T-47D breast
DU-145 prostate = system: DU-145 prostate
HCT-116 colon = system: HCT-116 colon
MOLT-4 leukemia = system: MOLT-4 leukemia
RPMI-8226 leukemia = system: RPMI-8226 leukemia
CCRF-CEM leukemia = system: CCRF-CEM leukemia
ACHN renal = system: ACHN renal
MCF7 breast = system: MCF7 breast
HCC-2998 colon = system: HCC-2998 colon
SNB-75 CNS = system: SNB-75 CNS

CNC(=S)NNc1ncnc2c1ncn2-c1ccc(C)cc1
TGI (TK-10 renal): > 100 µM | TGI (MALME-3M melanoma): > 100 µM | TGI (SF-539 CNS): > 100 µM | TGI (SN12C renal): > 100 µM | TGI (HS 578T breast): > 100 µM | TGI (NCI-H226 lung): > 100 µM | TGI (KM12 colon): > 100 µM | TGI (MDA-N): > 100 µM | TGI (LOX IMVI melanoma): > 100 µM | TGI (SR leukemia): > 100 µM | TGI (OVCAR-4 ovarian): > 100 µM | TGI (UO-31 renal): > 100 µM | TGI (NCI-H23 lung): > 100 µM | TGI (SK-OV-3 ovarian): > 100 µM | TGI (M14 melanoma): > 100 µM | TGI (MDA-MB-231 breast): > 100 µM | TGI (K-562 leukemia): > 100 µM | TGI (UACC-257 melanoma): > 100 µM | TGI (UACC-62 melanoma): > 100 µM | TGI (786-0 renal): > 100 µM | TGI (HOP-62 NSCLC): > 100 µM | TGI (SF-268 CNS): > 100 µM | TGI (IGROV1 ovarian): > 100 µM | TGI (BT-549 breast): > 100 µM | TGI (PC-3 prostate): > 100 µM | TGI (HL-60(TB) leukemia): > 100 µM | TGI (HT29 colon): > 100 µM | TGI (SF-295 CNS): > 100 µM | TGI (HCT-15 colon): > 100 µM | TGI (EKVX NSCLC): > 100 µM | TGI (U251 CNS): > 100 µM | TGI (MDA-MB-435): > 100 µM | TGI (NCI-H522 lung): > 100 µM | TGI (NCI/ADR-RES ovarian): > 100 µM | TGI (OVCAR-3 ovarian): > 100 µM | TGI (SK-MEL-28 melanoma): > 100 µM | TGI (CAKI-1 renal): > 100 µM | TGI (OVCAR-8 ovarian): > 100 µM | TGI (OVCAR-5 ovarian): > 100 µM | TGI (SK-MEL-2 melanoma): > 100 µM | TGI (NCI-H460 lung): > 100 µM | TGI (HOP-92 NSCLC): > 100 µM | TGI (A549 NSCLC): > 100 µM | TGI (RXF 393 renal): > 100 µM | TGI (SK-MEL-5 melanoma): > 100 µM | TGI (SW-620 colon): > 100 µM | TGI (SNB-19 CNS): > 100 µM | TGI (A498 renal): > 100 µM | TGI (COLO 205 colon): > 100 µM | TGI (T-47D breast): > 100 µM | TGI (DU-145 prostate): > 100 µM | TGI (HCT-116 colon): > 100 µM | TGI (MOLT-4 leukemia): > 100 µM | TGI (RPMI-8226 leukemia): > 100 µM | TGI (CCRF-CEM leukemia): > 100 µM

COc1ccc(CNc2nc3cc(C(F)(F)F)ccc3nc2-c2ccccc2)cc1OC
TGI (TK-10 renal): > 100 µM | TGI (MALME-3M melanoma): > 100 µM | TGI (SF-539 CNS): > 100 µM | TGI (HS 578T breast): > 100 µM | TGI (KM12 colon): > 100 µM | TGI (MDA-N): > 100 µM | TGI (LOX IMVI melanoma): 76.8 µM | TGI (SR leukemia): > 100 µM | TGI (ACHN renal): > 100 µM | TGI (OVCAR-4 ovarian): > 100 µM | TGI (UO-31 renal): > 100 µM | TGI (NCI-H23 lung): > 100 µM | TGI (SK-OV-3 ovarian): > 100 µM | TGI (M14 melanoma): > 100 µM | TGI (MDA-MB-231 breast): > 100 µM | TGI (K-562 leukemia): > 100 µM | TGI (UACC-257 melanoma): > 100 µM | TGI (UACC-62 melanoma): > 100 µM | TGI (786-0 renal): > 100 µM | TGI (HOP-62 NSCLC): > 100 µM | TGI (SF-268 CNS): > 100 µM | TGI (IGROV1 ovarian): > 100 µM | TGI (BT-549 breast): > 100 µM | TGI (PC-3 prostate): > 100 µM | TGI (HL-60(TB) leukemia): > 100 µM | TGI (HT29 colon): 61.1 µM | TGI (SF-295 CNS): > 100 µM | TGI (HCT-15 colon): > 100 µM | TGI (EKVX NSCLC): > 100 µM | TGI (MCF7 breast): 42.5 µM | TGI (MDA-MB-435): > 100 µM | TGI (NCI-H522 lung): > 100 µM | TGI (NCI/ADR-RES ovarian): > 100 µM | TGI (OVCAR-3 ovarian): > 100 µM | TGI (CAKI-1 renal): 75.4 µM | TGI (HCC-2998 colon): 45.9 µM | TGI (OVCAR-8 ovarian): > 100 µM | TGI (OVCAR-5 ovarian): > 100 µM | TGI (SK-MEL-2 melanoma): > 100 µM | TGI (NCI-H460 lung): 46.5 µM | TGI (A549 NSCLC): > 100 µM | TGI (RXF 393 renal): > 100 µM | TGI (SK-MEL-5 melanoma): 42.4 µM | TGI (SW-620 colon): > 100 µM | TGI (SNB-19 CNS): > 100 µM | TGI (COLO 205 colon): > 100 µM | TGI (SNB-75 CNS): > 100 µM | TGI (T-47D breast): > 100 µM | TGI (DU-145 prostate): > 100 µM | TGI (HCT-116 colon): > 100 µM | TGI (MOLT-4 leukemia): > 100 µM | TGI (CCRF-CEM leukemia): > 100 µM
